Target: T1, NPFFR1 (Homo sapiens, UniProt Q9GZQ6)
T1 construct: purchased Promega (in-house HiBiT-GPCR construct library, NanoBRET)
Test: NanoBRET screen HiBiT-NPFFR1 in HEK293
Assay type: binding
Procedure: Each tracer candidate was screened across the entire library of HiBiT-GPCR constructs using NanoBRET as the detection modality. As depicted in Figure 4A, the specificity of interactions was evaluated through decrease in BRET due to competitive displacement of a bound tracer by excess parental compound. Each tracer was analyzed for binding to each HiBiT-GPCR fusion in the absence and in the presence of competing parental compound. Briefly, HEK293 cells were transfected with HiBiT-GPCR constructs diluted into promoterless DNA to reduce expression and maximize translocation to the cell surface. Each tracer candidate was then screened at concentrations of 1 μM and 0.1 μM across cells expressing these fusions. Cells were treated for 1.5 h with tracer either alone or in the presence of 20 μM competing parental compound (i.e., control). BRET was measured upon addition of purified LgBiT and subsequent complementation with HiBiT genetically fused to a GPCR. The specificity of interactions was assessed through a decrease in BRET signal due to competitive displacement of the bound tracer. To further gauge the robustness of these interactions, the fold response over the control (i.e., BRETtracer/BRETcontrol) was calculated. We chose a 1.5-fold response, which translates to ≥7-fold signal over noise as the minimal threshold required to score an interaction as positive.
HiBiT-GPCR DNA constructs were diluted in 10 mM Tris pH 8 to a final concentration of 0.01 μg/μL, arrayed in 96-well plates and stored at −20 °C. For transfection, HEK293 cells were suspended in Opti-MEM (without phenol red) supplemented with 2% fetal bovine serum (Seradigm) and 100 units/mL penicillin–streptomycin (Gibco) at a final concentration of 220,000 cells/mL and dispensed into white 96-well plates at 90 μL/well. Subsequent transfections and screens were carried using an Agilent Bravo Automated Liquid Handling Platform. First, the 96-well HiBiT DNA arrays were diluted 25-fold in Opti-MEM (without serum or phenol red) to a final concentration of 0.0004 μg/μL and 20 μL of the diluted DNAs were transferred into new 96-well plates. Next, promoterless carrier DNA (1 μg/μL) was diluted 25-fold (0.04 μg/μL) and then dispensed into the diluted arrays at 20 μL/well. Following brief mixing, Viafect transfection reagent (Promega) diluted 16-fold into Opti-MEM was dispensed into the plates at 40 μL/well. After mixing by pipetting, plates were incubated for 10 min on the pipetting station deck. The DNA-transfection reagent complexes were then added to plates containing cells. To facilitate the screen, 10 μL of DNA-transfection reagent complexes were added in duplicates to the top 4 and bottom 4 rows, resulting in two identical 48-well arrays per plate. Plates with transfected cells were incubated for 18–20 h at 37 °C/5% CO2. A screen of each tracer across the entire library using two different concentrations requires duplicate plates of transfected cells. Depending on the number of tracers being screened, transfections can be scaled up using the same ratios. The next day, for each tracer, four 20× screening solutions in tracer dilution buffer (Promega) were prepared: two duplicates at final concentration of 20 μM and two duplicates at a final concentration of 2 μM. […] The four resulting solutions were diluted 4-fold in Opti-MEM without serum or phenol red to generate 5× solutions (5 µM and 0.5 µM tracer +/− 100 μM competing compound). To screen the library, a BioTek MultiFlo FX liquid dispenser was used to dispense 22.5 µL of tracer solution to the top 4 rows and 22.5 µL tracer + competing compound solution to the 4 bottom rows. Plates were briefly mixed on an orbital shaker and incubated for 1.5 h at room temperature. […] Plates were briefly mixed on an orbital shaker and incubated for 15 min to allow complementation.

T1 sequence (Q9GZQ6 whole entry): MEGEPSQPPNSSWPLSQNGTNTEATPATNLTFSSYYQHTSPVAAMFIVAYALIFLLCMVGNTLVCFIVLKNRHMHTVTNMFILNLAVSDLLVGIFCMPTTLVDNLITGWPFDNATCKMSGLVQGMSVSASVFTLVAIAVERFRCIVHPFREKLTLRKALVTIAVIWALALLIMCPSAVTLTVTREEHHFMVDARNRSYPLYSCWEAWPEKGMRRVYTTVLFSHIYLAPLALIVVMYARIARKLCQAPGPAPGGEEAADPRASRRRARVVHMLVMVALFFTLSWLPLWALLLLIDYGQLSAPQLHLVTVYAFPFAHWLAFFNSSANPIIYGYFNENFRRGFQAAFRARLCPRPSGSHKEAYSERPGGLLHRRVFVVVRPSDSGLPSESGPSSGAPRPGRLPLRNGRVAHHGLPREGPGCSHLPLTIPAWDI

Row | Compound | NanoBRET Fold Response (NPFFR1, tracer 0.1μM) | NanoBRET Fold Response (NPFFR1, tracer 1μM) | further results
1 | O=C(CCOCCOCCOCCOCCNC(=O)CCc1ccc2n1[B-](F)(F)[N+]1=C(c3ccc[nH]3)C=CC1=C2)NCCCN1CCN(C2=Nc3ccccc3Oc3ccc(Cl)cc32)CC1 [Loxapine-a-2-NB590] | 0.98 | 1.00 | –
2 | CCCn1c(=O)c2[nH]c(-c3ccc(OCC(=O)NCCNC(=O)CCOCCNC(=O)c4ccc(CNC(=O)CCc5ccc6n5[B-](F)(F)[N+]5=C(c7ccc[nH]7)C=CC5=C6)cc4)cc3)nc2n(CCC)c1=O [XAC-3-NB590] | 0.99 | 1.01 | –
3 | COc1ccccc1N1CCN(CCCCN2C(=O)c3ccc(CNC(=O)CCOCCOCCOCCOCCNC(=O)CCc4ccc5n4[B-](F)(F)[N+]4=C(c6ccc[nH]6)C=CC4=C5)cc3C2=O)CC1 [NAN-190-2-NB590] | 0.95 | 1.02 | –
4 | O=C(CCc1ccc2n1[B-](F)(F)[N+]1=C(c3ccc[nH]3)C=CC1=C2)NCc1ccc(C(=O)NCCOCCOCCNCC(O)COc2cccc3ccccc23)cc1 (stereo not drawn) [Propranolol-3-NB590] | – | – | NanoBRET Fold Response (NPFFR1, 0.1μM): 1.01; NanoBRET Fold Response (NPFFR1, 1μM): 0.99
5 | COc1ccccc1N1CCN(CCCCN2C(=O)c3ccc(CNC(=O)CCOCCNC(=O)c4ccc(CNC(=O)CCc5ccc6n5[B-](F)(F)[N+]5=C(c7ccc[nH]7)C=CC5=C6)cc4)cc3C2=O)CC1 [NAN-190-3-NB590] | 1.06 | 0.96 | –
6 | O=C(CCc1ccc2n1[B-](F)(F)[N+]1=C(c3ccc[nH]3)C=CC1=C2)NCc1ccc(C(=O)NCCOCCC(=O)N[C@@H]2CC[C@@]3(O)[C@H]4Cc5ccc(O)c6c5[C@@]3(CCN4CC3CC3)[C@H]2O6)cc1 [Naltrexone-3-NB590] | 0.94 | 1.15 | –
7 | CCOC(=O)c1cc(C#N)c(N2CCC(C(=O)NS(=O)(=O)Cc3ccccc3/C=C/C(=O)NCCNC(=O)CCc3ccc4n3[B-](F)(F)[N+]3=C(c5ccc[nH]5)C=CC3=C4)CC2)nc1C [AZD1283-1-NB590] | – | – | NanoBRET Fold Response (NPFFR1, 0.1μM): 1.02; NanoBRET Fold Response (NPFFR1, 1μM): 0.99
8 | COc1ccc2[nH]c(-c3ccc(CNC(=O)CCOCCOCCOCCOCCNC(=O)CCc4ccc5n4[B-](F)(F)[N+]4=C(c6ccc[nH]6)C=CC4=C5)cc3)c(CCNC(C)=O)c2n1 [AzomelatoninICO9-2-NB590] | – | – | NanoBRET Fold Response (1μM tracer): 1.01
9 | CC(C)N(CC[C@H](c1ccccc1)c1cc(CCNC(=O)CCOCCOCCOCCOCCNC(=O)CCc2ccc3n2[B-](F)(F)[N+]2=C(c4ccc[nH]4)C=CC2=C3)ccc1O)C(C)C [Tolterodine-2-NB590] | 1.19 | – | –
10 | CN1CCN(C2=Nc3cc(Cl)ccc3N(CC(=O)NCCOCCOCCOCCOCCNC(=O)CCc3ccc4n3[B-](F)(F)[N+]3=C(c5ccc[nH]5)C=CC3=C4)c3ccccc32)CC1 [Clozapine-c-2-NB590] | – | – | NanoBRET Fold Response (NPFFR1, 0.1μM tracer): 1.02; NanoBRET Fold Response (NPFFR1, 1μM tracer): 1.00
11 | N#CN=C(NCCCOc1cccc(CN2CCCCC2)c1)NCCNC(=O)CCOCCOCCOCCOCCNC(=O)CCc1ccc2n1[B-](F)(F)[N+]1=C(c3ccc[nH]3)C=CC1=C2 [Aminopotentidine-2-NB590] | 0.96 | 1.02 | –
12 | COc1ccc2c(n1)c(CCNC(C)=O)cn2CCNC(=O)CCc1ccc2n1[B-](F)(F)[N+]1=C(c3ccc[nH]3)C=CC1=C2 [Azamelatonin-1-NB590] | – | – | NanoBRET Fold Response (0.1μM tracer): 0.99; NanoBRET Fold Response (1μM tracer): 0.91
13 | CC(C)N(CC[C@H](c1ccccc1)c1cc(CCNC(=O)c2ccc(CNC(=O)CCc3ccc4n3[B-](F)(F)[N+]3=C(c5ccc[nH]5)C=CC3=C4)cc2)ccc1O)C(C)C [Tolterodine-BZ-NB590] | 0.96 | 1.02 | –
14 | O=C(CCc1ccc2n1[B-](F)(F)[N+]1=C(c3ccc[nH]3)C=CC1=C2)NCCOCCOCCNC(=O)OCCOCCN1CCN(C2=Nc3ccccc3Sc3ccccc32)CC1 [Quetiapine-a-2-NB590] | 0.99 | 1.00 | –
15 | Cc1cc2c(s1)Nc1ccccc1N=C2N1CCN(CCCNC(=O)CCOCCOCCOCCOCCNC(=O)CCc2ccc3n2[B-](F)(F)[N+]2=C(c4ccc[nH]4)C=CC2=C3)CC1 [Olanzapine-a-2-NB590] | 0.96 | – | –
16 | CN(C)CCC=C1c2ccccc2CCc2ccc(C(=O)NCCNC(=O)CCOCCOCCOCCOCCNC(=O)CCc3ccc4n3[B-](F)(F)[N+]3=C(c5ccc[nH]5)C=CC3=C4)cc21 [Amitriptyline-b-2-NB590] | – | – | NanoBRET Fold Response (tracer at 0.1μM): 0.98
17 | O=C(CCOCCOCCOCCOCCNC(=O)CCc1ccc2n1[B-](F)(F)[N+]1=C(c3ccc[nH]3)C=CC1=C2)NCCCN1CCN(C2=Nc3cc(Cl)ccc3Nc3ccccc32)CC1 [Clozapine-a-2-NB590] | – | – | NanoBRET Fold Response (NPFFR1, 1μM tracer): 0.98
18 | CN1CCN(C2=Nc3cc(Cl)ccc3Nc3ccc(CNC(=O)CCOCCOCCOCCOCCNC(=O)CCc4ccc5n4[B-](F)(F)[N+]4=C(c6ccc[nH]6)C=CC4=C5)cc32)CC1 [Clozapine-b-2-NB590] | – | – | NanoBRET Fold Response (NPFFR1, 0.1μM tracer): 1.00; NanoBRET Fold Response (NPFFR1, 1μM tracer): 1.02
19 | Cc1nc2n(c(=O)c1CCN1CCC(c3noc4cc(F)ccc34)CC1)CCCC2OC(=O)NCCOCCOCCOCCOCCNC(=O)CCc1ccc2n1[B-](F)(F)[N+]1=C(c3ccc[nH]3)C=CC1=C2 (stereo not drawn) [Risperidone-2-NB590] | 0.97 | 0.95 | –

Reference: PMC8151276, “An Integrated Approach toward NanoBRET Tracers for Analysis of GPCR Ligand Engagement” (Molecules, 2021)
